Experimental data from ChEMBL document CHEMBL1140351, “Design and synthesis of depeptidized macrocyclic inhibitors of hepatitis C NS3-4A protease using structure-based drug design” (J Med Chem, 2005).

Legend:
NS3 [1] = target: T1, NS3 (Hepatitis C virus, UniProt A3EZJ3); test: Ability to inhibit the hydrolysis of chromogenic 4-phenylazophenyl ester from the peptide fragment Ac- DTEDVVP(Nva)-O-4-PAP in a HCV protease continuous assay; parameters: species or system Hepacivirus hominis
Neutrophil elastase = target: T2, Neutrophil elastase (Homo sapiens, UniProt P08246); test: Binding constant towards Human neutrophil elastase HNE protease
T2 sequence (P08246 whole entry): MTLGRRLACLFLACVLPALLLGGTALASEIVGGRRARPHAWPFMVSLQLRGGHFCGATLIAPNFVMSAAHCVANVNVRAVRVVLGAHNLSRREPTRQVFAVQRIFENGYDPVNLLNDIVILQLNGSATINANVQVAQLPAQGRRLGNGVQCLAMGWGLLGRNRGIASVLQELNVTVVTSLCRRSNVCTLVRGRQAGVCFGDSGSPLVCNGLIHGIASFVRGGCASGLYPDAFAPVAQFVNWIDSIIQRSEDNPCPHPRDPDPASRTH

NS3 [2] = target: T1, NS3; test: Ability to inhibit the hydrolysis of chromogenic […] ester from the peptide fragment Ac- DTEDVVP(Nva)-O-4-PAP in a HCV protease continuous assay; parameters: species or system Hepacivirus hominis

T1 sequence (A3EZJ3 whole entry, the tested form may be a part): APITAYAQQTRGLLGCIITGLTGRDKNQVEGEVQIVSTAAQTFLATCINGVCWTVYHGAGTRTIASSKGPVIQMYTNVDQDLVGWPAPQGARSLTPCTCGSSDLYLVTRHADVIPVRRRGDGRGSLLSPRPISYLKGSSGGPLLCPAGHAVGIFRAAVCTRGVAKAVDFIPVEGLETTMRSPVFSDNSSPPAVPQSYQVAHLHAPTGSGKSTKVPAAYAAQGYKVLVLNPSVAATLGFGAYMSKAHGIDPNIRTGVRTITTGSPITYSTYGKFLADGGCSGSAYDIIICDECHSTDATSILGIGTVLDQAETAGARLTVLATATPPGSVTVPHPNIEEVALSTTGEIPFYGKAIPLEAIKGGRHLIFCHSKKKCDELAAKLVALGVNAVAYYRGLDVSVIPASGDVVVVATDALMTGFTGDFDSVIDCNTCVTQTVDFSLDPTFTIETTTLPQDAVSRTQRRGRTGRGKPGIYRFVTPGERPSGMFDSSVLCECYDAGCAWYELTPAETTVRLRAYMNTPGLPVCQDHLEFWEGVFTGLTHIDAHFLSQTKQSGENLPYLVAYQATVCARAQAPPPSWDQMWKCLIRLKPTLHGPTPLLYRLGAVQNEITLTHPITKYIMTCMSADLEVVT

Row | Ki (NS3 [1]) | Ki (Neutrophil elastase) | Ki (NS3 [2]) | Compound
1 | 800 nM | – | – | CCC[C@H](NC(=O)[C@@H]1Cc2cccc(c2)Oc2ccc(cc2)C[C@H](NC(C)=O)C(=O)N[C@@H](C2CCCCC2)C(=O)N1)C(=O)C(=O)NCC(=O)N[C@H](C(=O)O)c1ccccc1
2 | 110 nM | 2900 nM | – | CCC[C@H](NC(=O)[C@@H]1Cc2cccc(c2)Oc2ccc(cc2)CCC(=O)N[C@@H](C2CCCCC2)C(=O)N1)C(=O)C(=O)NCC(=O)N[C@H](C(=O)O)c1ccccc1
3 | 160 nM | – | 300 nM | CCC[C@H](NC(=O)[C@@H]1Cc2cccc(c2)Oc2ccc(cc2)CCCCC(=O)N[C@@H](C2CCCCC2)C(=O)N1)C(=O)C(=O)NCC(=O)N[C@H](C(=O)O)c1ccccc1
4 | 7800 nM | – | – | CCC[C@H](NC(=O)[C@@H]1Cc2cccc(c2)Oc2ccc(cc2)C[C@H](NC(=O)OC(C)(C)C)C(=O)N[C@@H](C2CCCCC2)C(=O)N1)C(=O)C(=O)NCC(=O)N[C@H](C(=O)O)c1ccccc1
5 | 12000 nM | – | – | CCC[C@H](NC(=O)[C@@H]1Cc2cccc(c2)Oc2ccc(cc2)C[C@H](NC(=O)OC(C)(C)C)C(=O)N[C@@H](C2CCCCC2)C(=O)N1)C(=O)C(=O)NCC(=O)O
6 | 300 nM | – | – | CCC[C@H](NC(=O)[C@@H]1Cc2cccc(c2)Oc2ccc(cc2)CCCC(=O)N[C@@H](C2CCCCC2)C(=O)N1)C(=O)C(=O)NCC(=O)N[C@H](C(=O)O)c1ccccc1
